Results on 38 molecules are retold here after ChEMBL document CHEMBL3507680, “University of Dundee, Gates Library screen for HepG2 cell viability”.

Each structure is given as a SMILES string.

This series is described as follows: Human HepG2 cell viability assay in 384 well format. Format: toxicity, cell-based. More on the design: dose 125 nL, time 70.5 hour; concentration not given beside the values. Conditions: HepG2 cells, read-out: Inhibition.
On to `O=C(NC1CCCC1)C1Cc2nc(-c3ccsc3)sc2N1CC1CC1` (stereo not drawn), for which the cytotoxicity at 70.5 h turned out to be 9.52%.

With `O=C(Cn1ccc2ccccc21)NCc1ccc(C(=O)O)cc1`, the cytotoxicity at 70.5 h is -10.6%.

Consider `COc1cc(OC)c(C2SCC(=O)Nc3n[nH]cc32)cc1OC` (stereo not drawn), for which the cytotoxicity at 70.5 h was -1.01%.

In the case of `Cc1cccnc1NC(=O)CC1(Cn2cnnn2)CCCCC1`, the cytotoxicity at 70.5 h is -7.45%.

`O=C(COc1coc(CN2CCCCCC2)cc1=O)c1ccccc1`: the cytotoxicity at 70.5 h came to 25.4%.

With `Cc1cccn2c(=O)cc(OC(=O)c3ccccc3)nc12`, the cytotoxicity at 70.5 h is -17.1%.

`O=C1N(Cc2cccnc2)CCC12CCCNC2` (stereo not drawn): the cytotoxicity at 70.5 h turned out to be 10.6%.

On to `CS(=O)(=O)N1Cc2ccccc2C2(CCN(C(=O)c3ccno3)CC2)C1`, for which the cytotoxicity at 70.5 h is 7.95%.

In the case of `COCCN1C[C@@H]2CN(C(=O)[C@H]3CCCO3)C[C@@H]2C1=O`, the cytotoxicity at 70.5 h is -15.9%.

With `CC(=O)N1[C@@H](C(=O)NCC2CC2)C[C@@H]2CN(Cc3ccco3)C[C@@H]21`, the cytotoxicity at 70.5 h stood at 0.192%.

Consider `COC1CC2(CCN(Cc3ccc4c(c3)OCO4)CC2)C1`, for which the cytotoxicity at 70.5 h is -12.6%.

Regarding `CCN1C(=O)CCCC12CCCN(C(=O)c1conc1C)C2` (stereo not drawn), the cytotoxicity at 70.5 h was -12.9%.

Regarding `O=C(Nc1ccccc1)C1=CC2(CCNCC2)c2ccccc21`, the cytotoxicity at 70.5 h stood at 3.63%.

On to `O=C(NC1CC1)c1ccc2ccc(N3CCN(CC4CC4)CC3)n2c1`, for which the cytotoxicity at 70.5 h was found to be 6.77%.

As for `O=C(c1cccs1)N1CC[C@H](O)[C@@H]1Cc1ccccc1`, the cytotoxicity at 70.5 h was found to be 29.4%.

On to `CCOc1ccc(Cl)cc1C1CCCN1` (stereo not drawn), for which the cytotoxicity at 70.5 h was -16.4%.

Take `O=C(Nc1cccnc1)C1Cc2nc(-c3ccsc3)sc2N1CC1CC1` (stereo not drawn): the cytotoxicity at 70.5 h is 15.3%.

Turning to `Cc1ccccc1C(=O)N1C[C@@H]2OCCN(c3ncccn3)[C@@H]2C1`, the cytotoxicity at 70.5 h worked out at 17.4%.

In the case of `CC(C)C(=O)N1CCC[C@]2(C(=O)N(C)C)CN(c3ccccn3)C[C@@H]2C1`, the cytotoxicity at 70.5 h turned out to be 11.4%.

For `COc1cc(N2CC[C@@H]3O[C@H](C(=O)N(C)C)C[C@@H]32)ncn1`, the cytotoxicity at 70.5 h was -17.2%.

For `CCC(=O)N1CCC[C@]2(C(=O)N(C)C)CN(c3ccccn3)C[C@@H]2C1`, the cytotoxicity at 70.5 h is -9.46%.

As to `COc1ccc(C[C@H]2CN(C(=O)c3ccncc3)CC[C@@H]2OC)cc1`, the cytotoxicity at 70.5 h came to 18.8%.

As to `C[C@@H]1CN(C(=O)c2cccs2)C[C@]12CCN(CCN(C)C)C2=O`, the cytotoxicity at 70.5 h is 21.2%.

In the case of `O=C1CCCN1Cc1nnc2n1CCN(Cc1ccoc1)CC2`, the cytotoxicity at 70.5 h was 30%.

Consider `CC[C@@H]1N(Cc2ccsc2)CCC[C@]12CCC(=O)N2C`, for which the cytotoxicity at 70.5 h is 18.9%.

For `CNC(=O)CN1CCCC12CCN(C(=O)c1ccc(F)cc1)CC2`, the cytotoxicity at 70.5 h was -11%.

`CCOC1COC2(CCN(Cc3cccc(F)c3)CC2)C1` (stereo not drawn): the cytotoxicity at 70.5 h was -12%.

Regarding `CC[C@@H]1N(Cc2ccsc2)CCC[C@]12CCC(=O)N2CCOC`, the cytotoxicity at 70.5 h was -17.5%.

For `COc1ccc(C[C@H]2CN(C(=O)CN(C)C)CC[C@H]2OC)cc1`, the cytotoxicity at 70.5 h was -6.67%.

For `c1ccc(N2CCCC3(CCN(Cc4cccs4)C3)C2)nc1` (stereo not drawn), the cytotoxicity at 70.5 h was 33.5%.

For `CCOCC1c2c(cnn2CC2CC2)CCN1Cc1nccs1` (stereo not drawn), the cytotoxicity at 70.5 h was -9.55%.

Consider `CN(Cc1ccco1)C1COC2(CCN(Cc3nccs3)CC2)C1` (stereo not drawn), for which the cytotoxicity at 70.5 h is -21.8%.

Regarding `c1cncc(OCC2CN(Cc3nccs3)Cc3nccn3C2)c1` (stereo not drawn), the cytotoxicity at 70.5 h is -15.5%.

In the case of `Cc1nc(CN2CCC3(CCCN(Cc4ccoc4)C3)C2=O)cs1` (stereo not drawn), the cytotoxicity at 70.5 h worked out at 11.4%.

Turning to `O=C(c1cccnc1)N1Cc2nccn2CC(COc2cccnc2)C1` (stereo not drawn), the cytotoxicity at 70.5 h was -15.2%.

Turning to `C[C@@H]1CN(Cc2ccsc2)C[C@]12CCN(Cc1cccnc1)C2=O`, the cytotoxicity at 70.5 h is 39%.

Take `O=C(CN(C1=NCCCC1)c1ccccc1)c1ccccc1`: the cytotoxicity at 70.5 h was determined as 25.2%.

As for `CCOc1ccc(N(CC(=O)c2ccccc2)C2=NCCCCC2)cc1`, the cytotoxicity at 70.5 h was -9.89%.
